Values after ≈ are worked out from the molar mass of the structure shown.
Assays:
E. coli 901C = assay: Broth microdilution MIC in CAMHB; assay type: cell-based; conditions: Escherichia coli; E. coli 901C (hyper-permeable); MHB; read-out: Minimum Inhibitory Concentration, E. coli 901C
Procedure, shortened: (§1)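 Per CLSI broth microdilution, colonies were grown 3-5 h at 37° C in cation-adjusted Mueller Hinton broth, then diluted to a starting inoculum of 2-8×10^5 CFU/mL against 2-fold serial compound dilutions. Plates were incubated 16-20 h at 37° C, and MIC was read visually as the lowest concentration with no growth.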

E. coli D22 = assay: Broth microdilution MIC in CAMHB; assay type: cell-based; conditions: Escherichia coli; E. coli D22 (hyper-permeable); MHB; read-out: Minimum Inhibitory Concentration, E. coli D22
Procedure, shortened: as §1

[1] = tested on: P. aeruginosa (ΔmexAB-oprM); assay: Broth microdilution MIC in CAMHB; assay type: cell-based; conditions: Pseudomonas aeruginosa, read-out: Minimum Inhibitory Concentration, P. aeruginosa ΔmexAB-OprM
Procedure, shortened: as §1

[2] = tested on: K. pneumoniae UMM producing SHV-5 and KPC-2; assay: Broth microdilution MIC in CAMHB; assay type: cell-based; conditions: Klebsiella pneumoniae, read-out: Minimum Inhibitory Concentration, K. pneumoniae UMM
Procedure, shortened: as §1

E. coli ATCC 25922 = assay: Broth microdilution MIC in CAMHB; assay type: cell-based; conditions: Escherichia coli, ATCC25922; E. coli ATCC 25922; MHB; read-out: Minimum Inhibitory Concentration, E. coli 25922
Procedure, shortened: as §1

A. baumannii ATCC 19606 = assay: Broth microdilution MIC in CAMHB; assay type: cell-based; conditions: Acinetobacter baumannii, ATCC19606; MHB; read-out: Minimum Inhibitory Concentration, A. baumannii ATCC 19606
Procedure, shortened: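 CLSI microdilution; CAMHB; inoculum 2-8×10^5 CFU/mL from 3-5 h 37° C culture; 2-fold compound series; 16-20 h, 37° C; MIC = lowest well without visible growth.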

[3] = tested on: K. pneumoniae 848844 producing SHV-11 and KPC-2; assay: Broth microdilution MIC in CAMHB; assay type: cell-based; conditions: Klebsiella pneumoniae, read-out: Minimum Inhibitory Concentration, K. pneumoniae 848844
Procedure, shortened: as §1

E. coli AG100 = assay: Broth microdilution MIC in CAMHB; assay type: cell-based; conditions: Escherichia coli; E. coli AG100 (wild-type parent); MHB; read-out: Minimum Inhibitory Concentration, E. coli AG100
Procedure, shortened: as §1

E. coli K12 PBP3 = molecular target: T1, E. coli K12 PBP3 (Escherichia coli, UniProt P0AD68); assay: biochemical; assay type: binding
T1 construct: made in house
T1 sequence (P0AD68 1-577): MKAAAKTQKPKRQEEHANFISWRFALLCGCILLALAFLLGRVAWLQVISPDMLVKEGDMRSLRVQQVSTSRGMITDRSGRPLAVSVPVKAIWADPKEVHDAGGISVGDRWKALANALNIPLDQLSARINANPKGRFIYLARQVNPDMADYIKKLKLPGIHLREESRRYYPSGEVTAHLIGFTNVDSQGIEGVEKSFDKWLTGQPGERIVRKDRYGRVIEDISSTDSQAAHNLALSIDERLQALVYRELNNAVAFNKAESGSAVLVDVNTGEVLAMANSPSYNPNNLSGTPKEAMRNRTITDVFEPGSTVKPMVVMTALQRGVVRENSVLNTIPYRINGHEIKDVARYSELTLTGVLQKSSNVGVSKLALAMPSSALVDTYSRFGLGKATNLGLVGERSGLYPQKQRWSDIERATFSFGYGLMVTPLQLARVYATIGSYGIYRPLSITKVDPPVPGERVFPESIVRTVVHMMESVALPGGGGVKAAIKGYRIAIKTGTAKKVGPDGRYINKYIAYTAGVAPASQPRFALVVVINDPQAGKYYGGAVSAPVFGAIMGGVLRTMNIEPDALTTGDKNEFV
Procedure, shortened: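 Fluorescence polarization (ex 490/em 520 nm) competition of inhibitors against Bocillin-FL at 0.1 μM, read up to 60 min. Final PBP levels: E. coli PBP3 1.5 μM; A. baumannii PBP2 2.5 μM, PBP3 0.2 μM in Tris pH 8.0/NaCl/glycerol/Tween 20; N. gonorrhoeae PBP2 […] in Hepes pH 8.0/NaCl/glycerol. EC50 = concentration halving PBP-bound Bocillin-FL.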

Compound | MIC (E. coli 901C) [µg/mL] | MIC (E. coli D22) [µg/mL] | MIC [1] [µg/mL] | MIC [2] [µg/mL] | MIC (E. coli ATCC 25922) [µg/mL] | MIC (A. baumannii ATCC 19606) [µg/mL] | MIC [3] [µg/mL] | MIC (E. coli AG100) [µg/mL] | EC50 (E. coli K12 PBP3) [µM]
NCCN1CCN(C(=O)NC(C(=O)N[C@H]2Cc3cccc(C(=O)O)c3OB2O)c2cc(F)c(O)cc2F)C(=O)C1=O (stereo partly drawn) [Example 93, (3R)-3-(2-(4-(2-aminoethyl)-2,3-dioxopiperazine-1-carboxamido)-2-(2,5-difluoro-4-hydroxyphenyl)acetamido)-2-hydroxy-3,4-dihydro-2H-benzo[e][1,2]oxaborinine-8-carboxylic acid] | 0.5 to 1 (≈ 0.869 to 1.74 µM) | 2 to 4 (≈ 3.48 to 6.95 µM) | 32 to 64 (≈ 55.6 to 111 µM) | 8 to 16 (≈ 13.9 to 27.8 µM) | 8 to 16 (≈ 13.9 to 27.8 µM) | > 128 | 32 to 64 (≈ 55.6 to 111 µM) | 8 to 16 (≈ 13.9 to 27.8 µM) | < 30
CCN1CCN(C(=O)NC(C(=O)N[C@H]2Cc3cccc(C(=O)O)c3OB2O)c2ccc(O)c(N)c2)C(=O)C1=O (stereo partly drawn) [Example 29, (3R)-3-(2-(3-amino-4-hydroxyphenyl)-2-(4-ethyl-2,3-dioxopiperazine-1-carboxamido)acetamido)-2-hydroxy-3,4-dihydro-2H-benzo[e][1,2]oxaborinine-8-carboxylic acid] | 0.5 to 1 (≈ 0.927 to 1.85 µM) | 2 to 4 (≈ 3.71 to 7.42 µM) | 8 to 16 (≈ 14.8 to 29.7 µM) | 32 to 64 (≈ 59.3 to 119 µM) | 32 to 64 (≈ 59.3 to 119 µM) | > 128 | > 128 | 32 to 64 (≈ 59.3 to 119 µM) | < 30
NCCN1CCN(C(=O)N[C@H](C(=O)N[C@H]2Cc3cccc(C(=O)O)c3OB2O)c2ccc(O)cc2F)C(=O)C1=O (single isomer, unassigned) [Example 88] | 8 to 16 (≈ 14.4 to 28.7 µM) | 32 to 64 (≈ 57.4 to 115 µM) | > 128 | > 128 | > 128 | > 128 | > 128 | > 128 | 30 to 500
NCCN1CCN(C(=O)NC(C(=O)N[C@H]2Cc3cccc(C(=O)O)c3OB2O)c2c(F)cc(O)cc2Cl)C(=O)C1=O (stereo partly drawn) [Example 94, (3R)-3-(2-(4-(2-aminoethyl)-2,3-dioxopiperazine-1-carboxamido)-2-(2-chloro-6-fluoro-4-hydroxyphenyl)acetamido)-2-hydroxy-3,4-dihydro-2H-benzo[e][1,2]oxaborinine-8-carboxylic acid] | 0.5 to 1 (≈ 0.845 to 1.69 µM) | 8 to 16 (≈ 13.5 to 27 µM) | 32 to 64 (≈ 54.1 to 108 µM) | 32 to 64 (≈ 54.1 to 108 µM) | 32 to 64 (≈ 54.1 to 108 µM) | > 128 | 32 to 64 (≈ 54.1 to 108 µM) | 32 to 64 (≈ 54.1 to 108 µM) | < 30
CCN1CCN(C(=O)NC(C(=O)N[C@H]2Cc3cccc(C(=O)O)c3OB2O)c2ccc(O)c(NC(C)=O)c2)C(=O)C1=O (stereo partly drawn) [Example 17, (3R)-3-(2-(3-acetamido-4-hydroxyphenyl)-2-(4-ethyl-2,3-dioxopiperazine-1-carboxamido)acetamido)-2-hydroxy-3,4-dihydro-2H-benzo[e][1,2]oxaborinine-8-carboxylic acid] | 0.5 to 1 (≈ 0.86 to 1.72 µM) | 2 to 4 (≈ 3.44 to 6.88 µM) | 8 to 16 (≈ 13.8 to 27.5 µM) | 32 to 64 (≈ 55 to 110 µM) | > 128 | > 128 | > 128 | > 128 | 30 to 500
CCN1CCN(C(=O)NC(C(=O)N[C@H]2Cc3cccc(C(=O)O)c3OB2O)c2cccc([N+](=O)[O-])c2)C(=O)C1=O (stereo partly drawn) [Example 75, (3R)-3-(2-(4-ethyl-2,3-dioxopiperazine-1-carboxamido)-2-(3-nitrophenyl)acetamido)-2-hydroxy-3,4-dihydro-2H-benzo[e][1,2]oxaborinine-8-carboxylic acid] | 0.5 to 1 (≈ 0.904 to 1.81 µM) | 8 to 16 (≈ 14.5 to 28.9 µM) | 32 to 64 (≈ 57.8 to 116 µM) | > 128 | > 128 | > 128 | > 128 | > 128 | 30 to 500
CCN1CCN(C(=O)NC(C(=O)N[C@H]2Cc3cccc(C(=O)O)c3OB2O)c2cccc(NC(=O)c3cncnc3)c2)C(=O)C1=O (stereo partly drawn) [Example 96, (3R)-3-(2-(4-ethyl-2,3-dioxopiperazine-1-carboxamido)-2-(3-(pyrimidine-5-carboxamido)phenyl)acetamido)-2-hydroxy-3,4-dihydro-2H-benzo[e][1,2]oxaborinine-8-carboxylic acid] | 0.5 to 1 (≈ 0.794 to 1.59 µM) | 8 to 16 (≈ 12.7 to 25.4 µM) | 32 to 64 (≈ 50.8 to 102 µM) | > 128 | > 128 | > 128 | > 128 | > 128 | 30 to 500
NCCCN1CCN(C(=O)NC(C(=O)N[C@H]2Cc3cccc(C(=O)O)c3OB2O)c2ccc(C(N)=O)c(O)c2)C(=O)C1=O (stereo partly drawn) [Example 47, (3R)-3-(2-(4-(3-aminopropyl)-2,3-dioxopiperazine-1-carboxamido)-2-(4-carbamoyl-3-hydroxyphenyl)acetamido)-2-hydroxy-3,4-dihydro-2H-benzo[e][1,2]oxaborinine-8-carboxylic acid] | 8 to 16 (≈ 13.4 to 26.8 µM) | 2 to 4 (≈ 3.35 to 6.71 µM) | 2 to 4 (≈ 3.35 to 6.71 µM) | > 128 | > 128 | > 128 | > 128 | > 128 | 30 to 500
CCN1CCN(C(=O)NC(C(=O)N[C@H]2Cc3ccc(O[C@@H]4CN[C@H](C(=O)N(C)C)C4)c(C(=O)O)c3OB2O)c2ccccc2)C(=O)C1=O (stereo partly drawn) [Example 59, (3R)-7-(((3S,5S)-5-(dimethylcarbamoyl)pyrrolidin-3-yl)oxy)-3-(2-(4-ethyl-2,3-dioxopiperazine-1-carboxamido)-2-phenylacetamido)-2-hydroxy-3,4-dihydro-2H-benzo[e][1,2]oxaborinine-8-carboxylic acid] | 2 to 4 (≈ 3.01 to 6.02 µM) | 32 to 64 (≈ 48.2 to 96.3 µM) | 8 to 16 (≈ 12 to 24.1 µM) | > 128 | > 128 | > 128 | > 128 | > 128 | 30 to 500
CCN1CCN(C(=O)NC(C(=O)N[C@H]2Cc3cccc(C(=O)O)c3OB2O)c2cc(O)cc(O)c2)C(=O)C1=O (mixture of isomers) [Example 79, (3R)-3-(2-(3,5-dihydroxyphenyl)-2-(4-ethyl-2,3-dioxopiperazine-1-carboxamido)acetamido)-2-hydroxy-3,4-dihydro-2H-benzo[e][1,2]oxaborinine-8-carboxylic acid] | < 0.25 | 2 to 4 | 2 to 4 | 8 to 16 | 8 to 16 | > 128 | 32 to 64 | 8 to 16 | 30 to 500
N=C(N)NCCN1CCN(C(=O)NC(C(=O)N[C@H]2Cc3ccc(F)c(C(=O)O)c3OB2O)c2ncc(O)cc2F)C(=O)C1=O (stereo partly drawn) [Example 51, (3R)-7-fluoro-3-(2-(3-fluoro-5-hydroxypyridin-2-yl)-2-(4-(2-guanidinoethyl)-2,3-dioxopiperazine-1-carboxamido)acetamido)-2-hydroxy-3,4-dihydro-2H-benzo[e][1,2]oxaborinine-8-carboxylic acid] | 2 to 4 (≈ 3.23 to 6.47 µM) | 8 to 16 (≈ 12.9 to 25.9 µM) | 8 to 16 (≈ 12.9 to 25.9 µM) | 8 to 16 (≈ 12.9 to 25.9 µM) | 32 to 64 (≈ 51.8 to 104 µM) | > 128 | 32 to 64 (≈ 51.8 to 104 µM) | 32 to 64 (≈ 51.8 to 104 µM) | 30 to 500
NS(=O)(=O)NC(C(=O)N[C@H]1Cc2cccc(C(=O)O)c2OB1O)c1ccc(C(=O)O)c(F)c1 (stereo partly drawn) [Example 44, (3R)-3-(2-(4-carboxy-3-fluorophenyl)-2-(sulfamoylamino)acetamido)-2-hydroxy-3,4-dihydro-2H-benzo[e][1,2]oxaborinine-8-carboxylic acid] | > 128 | > 128 | > 128 | > 128 | > 128 | > 128 | > 128 | > 128 | > 500
N=C(N)NCCN1CCN(C(=O)NC(C(=O)N[C@H]2Cc3ccc(F)c(C(=O)O)c3OB2O)c2ccc(C(=O)O)c(F)c2)C(=O)C1=O (stereo partly drawn) [Example 78, (3R)-3-(2-(4-carboxy-3-fluorophenyl)-2-(4-(2-guanidinoethyl)-2,3-dioxopiperazine-1-carboxamido)acetamido)-7-fluoro-2-hydroxy-3,4-dihydro-2H-benzo[e][1,2]oxaborinine-8-carboxylic acid] | 2 to 4 (≈ 3.1 to 6.2 µM) | 8 to 16 (≈ 12.4 to 24.8 µM) | 32 to 64 (≈ 49.6 to 99.2 µM) | > 128 | > 128 | > 128 | > 128 | > 128 | 30 to 500
CCN1CCN(C(=O)NC(C(=O)N[C@H]2Cc3cccc(C(=O)O)c3OB2O)c2cccc(NC(=O)c3cccnc3)c2)C(=O)C1=O (stereo partly drawn) [Example 97, (3R)-3-(2-(4-ethyl-2,3-dioxopiperazine-1-carboxamido)-2-(3-(nicotinamido)phenyl)acetamido)-2-hydroxy-3,4-dihydro-2H-benzo[e][1,2]oxaborinine-8-carboxylic acid] | 0.5 to 1 (≈ 0.796 to 1.59 µM) | 8 to 16 (≈ 12.7 to 25.5 µM) | 32 to 64 (≈ 50.9 to 102 µM) | > 128 | > 128 | > 128 | > 128 | > 128 | < 30

— patent publication US20230114728A1 (Venatorx Pharmaceuticals, Inc., priority 2019, published 2023)
